Laboratory results taken from article PMC4278221, “Territrem and Butyrolactone Derivatives from a Marine-Derived Fungus Aspergillus Terreus” (Marine Drugs, 2014).
≈ marks a conversion by molar mass, not a printed value. Where two headings read alike, the source gives them in different places.

Tests used:
Vero cell line = assay: Cytotoxic activity against Vero cell line by MTT method; assay type: cell-based; conditions: non-cytotoxic concentration (TC0)
Procedure: (§1) Cytotoxic activity was evaluated using Vero cell lines by the MTT method. Anti-HSV-1 activity was determined by plaque assay using monolayer cultures of Vero cells in 24-well culture plates (Corning, New York, NY, USA). Virus suspension containing HSV-1 (30 plaque forming units (PFU)/well) was added to the cell wells and incubated at 37 °C with 5% CO2 for 2 h. The virus inoculum was then removed and overlay medium (maintenance medium containing 1% methylcellulose and various concentrations of tested compound) was added to each well. After another 72 h of incubation, the cell monolayers were fixed with 10% formalin and stained with 1% crystal violet. Plaques were counted and the percentage of inhibition was calculated according to literature. The concentration reducing plaque numbers by 50% was calculated by regression analysis of the dose–response curves generated from the plaque assay and was defined as 50% inhibitory concentration (IC50).

HSV-1 = assay: Anti-HSV-1 plaque reduction assay in Vero cell monolayers; assay type: cell-based; conditions: 72 h, read-out: Anti-HSV-1 IC50
Procedure: The antiviral activities of 1–17 towards HSV-1 were evaluated using plaque reduction assay for the first time.
as §1

AChE = molecular target: T1, AChE (Homo sapiens, UniProt P22303); assay: biochemical
T1 construct: purchased Sigma
T1 sequence (P22303 32-614): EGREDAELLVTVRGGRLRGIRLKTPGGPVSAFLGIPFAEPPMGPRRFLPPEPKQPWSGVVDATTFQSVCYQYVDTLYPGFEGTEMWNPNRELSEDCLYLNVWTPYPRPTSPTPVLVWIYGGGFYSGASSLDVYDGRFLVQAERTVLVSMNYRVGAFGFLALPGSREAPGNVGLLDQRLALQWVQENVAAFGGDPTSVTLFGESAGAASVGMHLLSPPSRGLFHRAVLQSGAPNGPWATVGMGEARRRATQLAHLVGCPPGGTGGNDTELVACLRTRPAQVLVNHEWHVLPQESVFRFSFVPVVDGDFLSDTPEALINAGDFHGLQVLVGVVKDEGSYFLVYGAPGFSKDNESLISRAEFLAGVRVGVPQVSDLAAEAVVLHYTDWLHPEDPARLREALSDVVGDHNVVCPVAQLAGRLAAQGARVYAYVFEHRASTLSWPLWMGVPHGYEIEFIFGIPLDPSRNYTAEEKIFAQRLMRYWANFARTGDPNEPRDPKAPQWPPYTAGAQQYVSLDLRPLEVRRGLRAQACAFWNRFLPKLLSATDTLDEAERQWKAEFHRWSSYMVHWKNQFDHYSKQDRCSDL
Procedure: The inhibitory activities against AChE of compounds were investigated in vitro using the modified Ellman method. Briefly, the reaction mixture containing 20 μL of a different concentrations of the test compunds dissolved in DMSO solution, 450 μL of reaction buffer (0.01 M phosphate buffer, pH 7.0), 10 μL of 0.08-0.10 units/mL AChE (Sigma, one unit hydrolyzes […] of acetylcholineto choline and acetate per min at pH 7.0, 37 °C) and 10 μL of 0.01 M DTNB (Sigma, St. Louis, MO, USA) were filled in a microwell of 24-well polystyrene plate and incubated for 30 min at 37 °C. After preincubation, The reaction was started by adding 20 μL of 0.01 M ATCh (Sigma, St. Louis, MO, USA) solution in 0.01 M phosphate buffer (pH 7.0). Colorimetric measurements (412 nm) were performed on a enspire multimode microplate reader (varioskan flash, Thermo, Waltham, MA, USA). For determining the blank value, the 20 μL of test compound solution was instead of 20 μL of DMSO solution. Each concentration was analyzed in triplicate. […] IC50 values were determined graphically from the regression analysis of concentration-inhibition curves. The IC50 values are the mean ± standard deviations of three independent experiments.

[1] = test system: barnacle Balanus amphitrite larvae; assay: Barnacle Balanus amphitrite larval settlement bioassay (antifouling); conditions: for EC50: Amphibalanus amphitrite, 24 h, read-out: Antifouling Against B. Amphitrite EC50; for LC50/EC50 values: antifouling activity at nontoxic concentrations, B. amphitrite larvae
Procedure: Larval settlement bioassays were performed using sterile 24-well polystyrene plates. Tested samples were dissolved in DMSO to a concentration of 50 μg·mL^−1 for preliminary bioassay. […] About 20 competent larvae were added to each well in 1 mL of the test solution. The experiment was repeated twice with four replicateseach time. Wells containing only FSW with DMSO served as the controls. The plates were incubated at 27 °C for 24 h. The percentage of larval settlement was determined by counting the settled, live individuals under a dissecting microscope and expressing the result as a proportion of the total number of larvae in the well. Statistical calculations were performed with the SPSS software package.

[2] = Human alphaherpesvirus 1, plaque reduction assay in Vero cells, under non-cytotoxic concentrations (TC0)

For `Nc1nc2c(ncn2COCCO)c(=O)[nH]1` [Acyclovir, reference compound], the “Cytotoxicity Against Vero TC0” value (Vero cell line) was greater than 1000 µg/mL and the IC50 (HSV-1; [2]) was 34.5 ± 0.7 µg/mL (≈ 153 µM).

In the case of `COc1cc(-c2cc3c(c(=O)o2)C[C@]2(O)[C@@]4(C)C(=O)C=CC(C)(C)[C@]4(O)CC[C@@]2(C)O3)cc(O)c1OC` [Compound 1, territrem D], the IC50 (AChE) is reported as 0.0042 ± 0.0006 µM, the “Cytotoxicity Against Vero TC0” value (Vero cell line) is reported as 25 µg/mL and the EC50 [1] is reported as 12.9 ± 0.5 µg/mL (≈ 25.2 µM). It also gave an LC50/EC50 values [1] greater than 100 µg/mL.

For `COc1cc(-c2cc3c(c(=O)o2)C[C@]2(O)[C@@]4(C)C(=O)C=CC(C)(C)[C@]4(O)CC[C@@]2(C)O3)ccc1O` [Compound 2, territrem E], the IC50 (AChE; modified Ellman method, pH 7.0, 37 °C, mean ± SD of three independent experiments, read-out: Anti-AChE IC50) was 0.0045 ± 0.0006 µM and the “Cytotoxicity Against Vero TC0” value (Vero cell line) was 200 µg/mL.

`COc1ccc(-c2cc3c(c(=O)o2)C[C@H]2[C@@](C)(CC[C@@]4(O)C(C)(C)OC(=O)CC[C@]24C)O3)cc1` [Compound 3, 11a-dehydroxyisoterreulactone A] was tested, and the “Cytotoxicity Against Vero TC0” value (Vero cell line) was 200 µg/mL and the IC50 (HSV-1; [2]) was 16.4 ± 0.6 µg/mL (≈ 35 µM).

For `COc1cc(-c2cc3c(c(=O)o2)C[C@]2(O)[C@@]4(C)C(=O)C=CC(C)(C)[C@]4(O)CC[C@@]2(C)O3)cc(OC)c1OC` [Compound 4, territrem B], the IC50 (AChE) was 0.0042 ± 0.0006 µM and the “Cytotoxicity Against Vero TC0” value (Vero cell line) was 25 µg/mL.

With `COc1cc(-c2cc3c(c(=O)o2)C[C@]2(O)[C@@]4(C)C(=O)C=CC(C)(C)[C@]4(O)CC[C@@]2(C)O3)cc(OC)c1O` [Compound 5, territrem C] the IC50 (AChE) was 0.0201 ± 0.0033 µM and the “Cytotoxicity Against Vero TC0” value (Vero cell line) was greater than 25 µg/mL.

In the case of `COc1ccc(-c2cc3c(c(=O)o2)C[C@]2(O)[C@@]4(C)C(=O)C=CC(C)(C)[C@]4(O)CC[C@@]2(C)O3)cc1OC` [Compound 6, arisugacin A], the IC50 (AChE) is reported as 0.0119 ± 0.0021 µM, the “Cytotoxicity Against Vero TC0” value (Vero cell line) is reported as 100 µg/mL and the IC50 (HSV-1; Human alphaherpesvirus 1, Vero) is reported as 6.34 ± 0.4 µg/mL (≈ 12.8 µM).

In the case of `COc1ccc(-c2cc3c(c(=O)o2)C[C@]2(O)[C@@]4(C)[C@@H](O)C[C@@H](OC(C)=O)C(C)(C)[C@]4(O)CC[C@@]2(C)O3)cc1` [Compound 7, arisugacin H], the IC50 (AChE; modified Ellman method, value printed in μM in text, read-out: Anti-AChE IC50) is reported as 5.7 ± 0.8 µM and the “Cytotoxicity Against Vero TC0” value (Vero cell line) is reported as 100 µg/mL.

For `COc1ccc(-c2cc3c(c(=O)o2)C[C@]2(O)[C@@]4(C)CCC(=O)C(C)(C)[C@]4(O)CC[C@@]2(C)O3)cc1` [Compound 8, terreulactone C], the IC50 (AChE) was 0.05 ± 0.0015 µM and the “Cytotoxicity Against Vero TC0” value (Vero cell line) was greater than 25 µg/mL.

`COC1(Cc2ccc(O)cc2)OC(=O)C(O)=C1c1ccc(O)cc1` (stereo not shown) [Compound 10, isobutyrolactone II] was tested, and the “Cytotoxicity Against Vero TC0” value (Vero cell line) was 200 µg/mL and the IC50 (HSV-1; [2]) was 21.8 ± 1.8 µg/mL (≈ 66.4 µM).

In the case of `COC(=O)[C@]1(Cc2ccc3c(c2)C[C@H](O)C(C)(C)O3)OC(=O)C(O)=C1c1ccc(O)cc1` [Compound 11, butyrolactone V], the EC50 [1] is reported as 22.1 ± 0.8 µg/mL (≈ 50.2 µM) and the LC50/EC50 values [1] is reported as greater than 100 µg/mL.

In the case of `COC(=O)[C@]1(Cc2ccc3c(c2)CCC(C)(C)O3)OC(=O)C(O)=C1c1ccc(O)cc1` [Compound 12, aspernolide A], the “Cytotoxicity Against Vero TC0” value (Vero cell line) is reported as 100 µg/mL, the IC50 (HSV-1; [2]) is reported as 28.9 ± 1.8 µg/mL (≈ 68.1 µM) and the EC50 [1] is reported as 7.4 ± 0.6 µg/mL (≈ 17.4 µM). The LC50/EC50 values [1] was greater than 100 µg/mL.

`COC(=O)[C@]1(Cc2ccc(O)c(CCC(C)(C)O)c2)OC(=O)C(O)=C1c1ccc(O)cc1` [Compound 15, aspernolide B] gave an EC50 [1] of 16.1 ± 0.6 µg/mL (≈ 36.4 µM) and an LC50/EC50 values [1] greater than 100 µg/mL.
